Test results published in PubChem BioAssay AID2252 (Southern Research Specialized Biocontainment Screening …, 2010).
pEC50: −log10 of the molar value. Values joined by “and” are separate entries in the source; they are usually repeats but may differ in a detail not shown here. Equal entries are not always repeated.

System: THP-1 viability, CellTiter-Glo luminescence, 72 h
Assay: PubChem AID 2252

| Compound | pEC50 |
| --- | --- |
| CCOC(=O)COc1cccc2c(=O)n(CC(=O)N3CCCCC3)ccc12 | 4.61 |
| Cc1ccc2oc(=O)c(/C=C(\O)c3ccccc3)nc2c1 | > 7.00 |
| Cn1c(SCC(=O)N/N=C/c2ccc([N+](=O)[O-])s2)nnc1-c1ccc(Cl)cc1 | 5.11 |
| NC[C@@H]1O[C@H](C23CC4CC(CC(C4)C2)C3)Cc2c1ccc(O)c2O | 5.44 |
| O=C1C(Cl)=C(NCc2cccnc2)C(=O)c2ccccc21 | 4.90 |
| C#CCOCCOCCOCCNc1nc(N2CCN(C(=O)CCCCCCCCCCNC(=O)[C@H](CCCCN)n3cc(CCO)nn3)CC2)nc(N2CCN(C(=O)CCCCCCCCCCNC(=O)[C@H](CCCCN)n3cc(C[C@@H](C)CC)nn3)CC2)n1 | 4.89 |
| COc1ccccc1Nc1c2ccccc2nc2ccccc12 | 5.08 |
| Clc1c(OCCCn2ccnc2)ccc2ccccc12 | 4.39 |
| Cc1ccc(-c2c[n+](Cc3ccc(Cl)c(Cl)c3)c3n2CCC3)cc1 | 5.36 |
| COc1cccc(/C=N/NC(=O)CNC(=O)CCc2ccccc2)c1O | 4.66 |
| Fc1ccc([C@@H]2CCNC[C@H]2COc2ccc3c(c2)OCO3)cc1 | 5.12 |
| Nc1nc(=S)c2[nH]cnc2[nH]1 | 6.49 |
| COc1ccc2nc(C)cc(Nc3ccc(N4CCOCC4)cc3)c2c1 | 4.34 |
| COc1cc([N+](=O)[O-])cc(/C=N/NC(=O)CSc2ccccn2)c1O | 4.46 |
| O=C(Cc1ccccc1)NNC(=S)NC(=O)c1cccs1 | 4.76 |
| Cc1cccc(Nc2nc(NCc3ccco3)c3ccccc3n2)c1 | 5.35 |
| O=C(Nc1nnc(-c2cccs2)o1)c1cccc(C(F)(F)F)c1 | 4.85 |
| N=C1c2ccccc2CN1c1ncccn1 | > 7.00 |
| Cc1ccc(-c2csc(NC(=O)C[n+]3cc(-c4ccc(C)cc4)n4c3CCC4)n2)cc1 | 5.08 |
| O=[N+]([O-])c1cc(/C=N/Nc2nc3ccccc3[nH]2)c(O)cc1O | 5.77 |
| C/C(=N\NC(=O)c1ccc(Cl)cc1)c1ccccn1 | 6.01 |
| COc1ccc(C(=O)N/N=C/c2sc3ccccc3c2O)cc1 | 5.47 |
| COc1ccc(C2NCCc3c2[nH]c2ccccc32)cc1COc1ccc(F)cc1 (stereo not drawn) | 5.16 |

| Compound | pEC50 |
| --- | --- |
| C#CCOCCOCCOCCNc1nc(N2CCN(C(=O)CCCCCCCCCCNC(=O)[C@H]([C@@H](C)CC)n3cc(CCCCN=C(N)N)nn3)CC2)nc(N2CCN(C(=O)CCCCCCCCCCNC(=O)[C@H](CO)n3cc(CCCCCN)nn3)CC2)n1 | 5.12 |
| CC1CC(=O)c2c(cc3c(-c4c(O)cc(O)c5c(O)c6c(cc45)OC(C)CC6=O)c(O)cc(O)c3c2O)O1 (stereo not drawn) | > 7.00 |
| O=C(CN1C2=NCCCN2c2ccccc21)c1ccc([N+](=O)[O-])cc1 | 4.49 |
| CCCCCN=C(N)N/N=C/c1c[nH]c2ccc(OC)cc12 | 5.59 |
| O=Nc1c(O)c2ccccc2c2ccccc12 | 5.51 |
| CCCOc1ccc(CSC2=NCCN2)cc1[N+](=O)[O-] | 4.68 |
| CCOC(=O)N/N=C(/C)c1ccc([N+](=O)[O-])o1 | 4.47 |
| Cc1cc(N/N=C/c2ccc(F)cc2)nc(NCc2ccccc2)n1 | 4.65 |
| COc1ccc(Nc2c3c(nc4ccc(C)cc24)CCC3)cc1 | 4.72 |
| CCCCCCOC(=O)C[N+](C)(C)CCOC1CC2CCC1(C)C2(C)C (stereo not drawn) | 5.68 |
| CC(C)(c1ccccc1)c1ccc(OCCCNCCO)cc1 | 4.78 |
| NC1=NC[C@@H](Cc2ccc(O)cc2)N1CCc1cc(C(F)(F)F)cc(C(F)(F)F)c1 | 4.49 |
| CN1CCc2c(sc(NC(=O)c3ccc([N+](=O)[O-])o3)c2C(N)=O)C1 | 6.15 |
| CC(=O)Nc1ccc(NC(=O)CSc2ccc(-c3ccco3)nn2)cc1 | > 7.00 |
| N=c1c2c(n(Cc3ccc(Cl)cc3)c3c1CCC3)CCC2 | 4.95 |
| Cc1ccccc1C(=O)Nc1cccc(C(=O)N/N=C/c2cc(Cl)cc([N+](=O)[O-])c2O)c1 | 4.91 |
| Cc1cccc(OCC(O)Cn2c(=N)n(CCN3CCCCC3)c3ccccc32)c1 (stereo not drawn) | 4.79 |
| COC(=O)c1cc(CSC(=N)N)ccc1OCCC(C)C | 4.83 |
| Cc1c(CN(C)C)c2c(n1Cc1ccccc1)C(=O)c1ccc(Br)cc1-2 | 4.68 |
| CCCCCCCCCCOC(=O)Cn1c(COc2ccc(OC)cc2)[n+](C)c2ccccc21 | 5.39 and 5.66 |
| CCCCCCCCCCCCOC(=O)C[N+](C)(C)C | 4.63 |
| CC(Nc1nc(N2CCCCC2)nc2ccccc12)c1ccccc1 (stereo not drawn) | 5.15 |
| O=C(Nc1ccc(Cl)cc1)Nc1ccc2c(c1)N1CCN=C1S2 | 4.86 |

| Compound | pEC50 |
| --- | --- |
| COc1ccccc1N1CCN(Cc2ccc(O)c3ncccc23)CC1 | 5.58 |
| CC(C)[C@@H]1CC[C@@H](C)C[C@H]1OC(=O)C[n+]1cc(-c2ccc(Cl)cc2)n2c1CCCCC2 | 5.66 |
| CCN(CCCNC(=O)c1cn(CC)c2ccc(S(=O)(=O)N(C)C)cc2c1=O)c1cccc(C)c1 | 4.46 |
| Cc1ccc(C(=O)N/N=C\c2ccc([N+](=O)[O-])s2)cn1 | 4.88 |
| CCCCCc1ccc(OCCC[n+]2ccccc2)c(CCCCC)c1 | 5.80 |
| O=C(CC(=O)c1cc(Cl)ccc1O)c1ccccc1 | 4.91 |
| COc1cc(/C=N/NC(=O)c2cncc(Br)c2)cc([N+](=O)[O-])c1O | 4.42 |
| O=C(CC(=O)c1ccccc1O)c1cccc(F)c1 | 4.58 |
| COc1cc2c(cc1O)[C@H](Cc1ccc(Oc3cc(C[C@@H]4NCCc5cc(OC)c(O)cc54)ccc3O)cc1)NCC2 | 4.32 |
| CCc1c(C)n([O-])c2c([n+]1=O)CCCCC2 | > 7.00 |
| COc1ccc(CSCCN)cc1Cl | 4.35 |
| O=C(C[n+]1cnn(CC(=O)c2ccc(Cl)cc2Cl)c1)c1ccc([N+](=O)[O-])cc1 | 4.58 |
| O=CN/N=C/c1c(O)ccc2ccccc12 | 5.29 |
| Cc1ccc(C(=O)N/C(=C\c2ccc(-c3ccc(Cl)cc3)o2)C(=O)NCCCN(C)C)cc1 | 5.27 |
| Cc1ccc(C(C)C)c(OCCNC(=O)c2ccccc2O)c1 | 4.49 |
| Cc1ccc2cc(CN(CCN(C)C)C(=O)Nc3ccc(Cl)cc3)c(=O)[nH]c2c1 | 4.72 |
| OCCN1CCN(C2Cc3cc(Cl)ccc3Sc3ccc(Cl)cc32)CC1 (stereo not drawn) (tested in a mixture with another compound) | 5.11 |
| CCN1c2ccccc2NC2N=C(OC)C(c3ccccc3)C21 (stereo not drawn) | 4.79 |
| COc1cccc(/C=N/NC(=O)c2ccoc2C)c1O | 5.37 |
| c1cc2c(cc1Oc1nc(N3CCOCC3)nc(N3CCOCC3)n1)OCO2 | > 7.00 |
| CCCN(CCC)CCNC(=O)C1CCN(Cc2nc(-c3ccc(Cl)cc3)oc2C)CC1 | 4.61 |
| O=C(/C=C/c1ccccc1)c1cc(Br)ccc(=O)c1O | 4.98 |
| O=S(=O)(Nc1c(S(=O)(=O)c2ccccc2)c2nc3ccccc3nc2n1C1CCCCC1)c1ccccc1 | 4.91 |

| Compound | pEC50 |
| --- | --- |
| CCOC(=O)c1nc(C)n(-c2cc(Cl)ccc2Cl)n1 | 4.83 |
| Oc1ccc(C[C@@H]2CNCCN2CCC23CC4CC(CC(C4)C2)C3)cc1 | 5.01 |
| CCCCC(=O)NNC(=S)NC(=O)CCC | 4.34 |
| CN1CCN(c2ccccc2NC(=O)c2sc3ccccc3c2Cl)CC1 | 4.60 |
| CC(=O)NC(=S)NNC(=O)c1ccc(Br)cc1 | 4.56 |
| Cc1c(C(=O)Nc2ccncc2)sc2nc(-c3ccc(F)cc3)cn12 | 4.71 |
| CN1CCN(C2Cc3cc(Cl)ccc3Sc3cc(F)ccc32)CC1 (stereo not drawn) | 5.09 |
| NC(N)=Nc1nc(-c2ccccc2)c2cc(Cl)ccc2n1 | 5.42 |
| CCCCOc1ccc(CN=C(N)N)cc1Cl | 5.00 |
| c1ccc(CN2CCN(c3ncnc4c3[nH]c3ccccc34)CC2)cc1 | 4.70 |
| O=C(NNC(=S)NC(=O)c1ccco1)c1ccc(F)cc1 | 5.02 |
| CCOc1ccc(/C=N/NC(=O)c2[nH]ncc2Br)c(O)c1 | 5.83 |
| CNCCC=C1c2ccccc2CCc2ccccc21 | 4.65 |
| CCCCCCCCCCCCCCCC[n+]1cccc(C(=O)N(CC)CC)c1 | 6.36 |
| C=CCNc1ncnc2c1[nH]c1ccc(Cl)cc12 | 5.15 |
| O=[N+]([O-])c1cc(Cl)cc(/C=N/NC(=S)Nc2ccc(S(=O)(=O)N3CCOCC3)cc2)c1O | 4.57 |
| Cc1ccc2nc(NCc3ccccc3)[nH]c2c1 | 5.41 |
| CC1(C)CC(N2CCN(C(c3ccccc3)c3ccccc3)CC2)=CC(=[N+]2CCCCC2)C1 | 5.98 |
| Cc1cccc2sc(N(CCCN(C)C)C(=O)COc3ccc(Cl)cc3)nc12 | 4.60 |
| CC(=O)Oc1ccccc1C(=O)Nc1ncc([N+](=O)[O-])s1 | 4.70 |
| c1ccc2c(NCCc3c[nH]c4ccccc34)c3ccccc3nc2c1 | 5.36 |
| CN1CCN(CCCN2c3ccccc3Sc3ccc(C(F)(F)F)cc32)CC1 | 4.99 |
| Oc1ccc(Cl)cc1Cc1cc(Cl)ccc1O | 4.71 |

| Compound | pEC50 |
| --- | --- |
| CN(C)CCCn1c(SCC(=O)N2c3ccccc3Sc3ccccc32)nc2ccccc2c1=O | 4.85 |
| N/C(=N\OC(=O)N1CCOCC1)c1ccccc1 | 4.81 |
| CCOc1cc(CNCCCN2CCOCC2)cc(Br)c1OCC(=O)Nc1cccc(C(F)(F)F)c1 | 5.08 |
| CC1CCc2cc(F)cc3c(=O)c(C(=O)O)cn1c23 (stereo not drawn) | > 7.00 |
| COc1ccc(CNCCc2ccc(Cl)cc2)cc1OCc1ccccc1 | 4.61 |
| Cc1ccc(CNCCC2=CCCCC2)cc1 | 4.57 |
| Cc1cc(=O)oc2ccc(OCC(=O)N3CCC(C)CC3)cc12 | > 7.00 |
| Oc1ccccc1C(Nc1nccs1)c1ccc2cccnc2c1O (stereo not drawn) | 5.68 |
| CN1CCN(c2ccc(NC(=O)CSc3ccccc3)cc2F)CC1 | > 7.00 |
| CCN1/C(=C/c2cc[n+](C)cc2)C=Cc2cc(C)ccc21 | 5.17 |
| C/C(=N\NC(=O)c1cccc(Br)c1)c1ccccn1 | 5.81 |
| N#Cc1ccc(C2=NC(C(F)(F)F)(C(F)(F)F)c3c(n(Cc4ccco4)c(=O)[nH]c3=O)N2)cc1 | 4.51 |
| COc1ccc(C(=O)C[n+]2cc(Br)cc3ccccc32)cc1[N+](=O)[O-] | > 7.00 |
| CCc1ccc(-c2nn(-c3ccccc3)cc2CSC(=N)N)cc1 | 5.29 |
| Fc1ccc(Nc2c3c(nc4ccccc24)CCC3)cc1 | 5.20 |
| COC(=O)C1=C(C)N(Cc2ccccc2)C(=NCc2cccc(C(F)(F)F)c2)N[C@H]1c1cccc(F)c1 | 5.28 |
| N#C/C(N=Nc1ccccc1O)=N\Nc1ccccc1O | 5.35 |
| Clc1ccc(C(c2ccc(Cl)cc2)n2cc[n+](CC(OCc3ccc(Cl)cc3Cl)c3ccc(Cl)cc3Cl)c2)cc1 (stereo not drawn) | 5.84 |
| O=C(CNCCC1=CCCCC1)Nc1ccc(N2CCCCCC2)cc1 | 4.81 |
| COc1cc(CNc2ccc(N3CCN(C(C)=O)CC3)cc2)ccc1OCc1ccccc1 | 5.19 |
| CC(NCc1ccccc1O)C12CC3CC(CC(C3)C1)C2 (stereo not drawn) | 4.38 |
